Experimental data as given in US4707477A, “Treating and preventing agent for ischemic cardiac disease and arrhythmia” (priority 1985, dated 1987).
Counter-ions that a name gives are not always drawn.

Columns and labels:
[1] = test system: striated structure; assay: Pathological examination of striated structure (Experimental Example 1); assay type: in vivo, dog; settings: previously administered, 0.5 mg/kg i.v.
Method: (§1) A dog was anesthetized with 50 mg/kg of sodium pentobarbital and a 2% CaC12 solution was intravenously injected into the femoral vein of the animal at a rate of 1.33 ml/min/10 kg. After 90 min, 0.1 mg, 0.2 mg and 0.3 mg of adrenaline were successively injected thereto intraveneously.
From a pathological viewpoint, the striated structure of a subject was damaged in the case where no bunazosin hydrochloride was previously administered.

[2] = test system: dog; assay: Adrenaline-induced ventricular tachycardia/fibrillation after CaCl2 infusion in anesthetized dog (Experimental Example 1); assay type: in vivo; settings: 0.5 mg/kg i.v. 12 min before adrenaline, 0.1, 0.2 and 0.3 mg adrenaline successively i.v., 2% CaCl2 infusion
Method: as §1

[3] = Acute toxicity, LD50, Wistar rat; settings: in vivo
[4] = Acute toxicity, LD50, ICR mouse; settings: in vivo
[5] = Solubility; assay type: physicochemical
[6] = test system: Creatinie phosphokinase (CPK); assay: Creatine phosphokinase (CPK) after CaCl2, sodium polystyrenesulfonate and adrenaline in anesthetized dog (Experimental Example 2); assay type: in vivo; settings: 0.5 mg/kg previously administered
Method: A dog was anesthetized with 50 mg/kg of sodium pentobarbital and a 0.5% CaCl2 solution was intravenously injected into the femoral vein of the animal at a rate of 1.33 ml/min/10 kg simultaneously with enemiasis of 25 g of sodium polystyrenesulfonate. After 30 min, 0.05 mg/kg of adrenaline was intravenously injected thereto.

With CCCC(=O)N1CCCN(c2nc(N)c3cc(OC)c(OC)cc3n2)CC1 [bunazosin hydrochloride] the “change of striated structure (pathological viewpoint)” value [1] was “no change was observed”, the “ventricular tachycardia or ventricular fibrillation” value [2] was “none among ten animals” and the LD50 ([3]; im, female, intramuscular) was 152 mg/kg. For the same compound, the LD50 ([3]; im, male, intramuscular) was 205 mg/kg, the LD50 ([3]; iv, female) was 50 mg/kg and the LD50 ([3]; iv, male) was 51 to 64 mg/kg. It also gave an LD50 ([3]; po, female) of 1280 mg/kg, an LD50 ([3]; sc, female, subcutaneous) of 365 mg/kg and an LD50 ([3]; sc, male, subcutaneous) of 430 mg/kg. It also gave an LD50 ([4]; im, female, intramuscular) of 598 mg/kg, an LD50 ([4]; im, male, intramuscular) of 660 mg/kg and an LD50 ([4]; iv, female) of 80 mg/kg. It also gave an LD50 ([4]; iv, male) of 57 mg/kg, an LD50 ([4]; po, female) of 1250 mg/kg and an LD50 ([4]; po, male) of 1200 mg/kg. For the same compound, the LD50 ([4]; sc, female, subcutaneous) was 630 mg/kg, the LD50 ([4]; sc, male, subcutaneous) was 730 mg/kg and the solubility ([5]; absolute ethanol) was “hardly soluble”. For the same compound, the solubility ([5]; chloroform) was “almost insoluble”, the solubility ([5]; formic acid) was “highly soluble” and the solubility ([5]; methanol) was “not readily soluble”. The solubility ([5]; n-butanol) was “hardly soluble”, the solubility ([5]; water) was “not readily soluble” and the “CPK, difference from the control” value ([6]; 60 min after injection of adrenaline) was “no significant difference from the control”. It also gave a CPK ([6]; determined 60 min after injection of adrenaline (0.05 mg/kg i.v.)) of 85.1±15.6.
